Measured values taken from patent US8020343B2, “Enhanced shelf life and on seed stabilization of liquid bacterium inoculants” (Becker Underwood Inc., priority 2004, dated 2011).

Columns and labels:
Rhizobium leguminosarum = experiment: Sugar/sugar alcohol study: bacteria counts on pea seeds; format: cell-based; details: 15° C., sorbitol vs sucrose vs trehalose
Experimental: Partially desiccated inoculant products were prepared by first growing Rhizobium leguminosarum in a Rhizobium leguminosarum bv. viceae culture medium. Two different culture mediums were used, 1×R1 and 1.5×R1, which are pea and lentil fermentation medium. The 1.5×R1 has 50% more media components than 1×R1. After 3 days culture growth, a sugar or a sugar alcohol was aseptically added to the culture. The amount of sugar or sugar alcohol added to the culture is shown in final concentration (weight/volume) in Table 9 below. The culture was then allowed a 2 day conditioning phase during which the culture continued to grow thereby creating the partially desiccated inoculant product. The partially desiccated inoculant product was then applied to pea seeds at a rate of 3.1 L inoculant product/1136 kg seed. The seeds were then mixed in a bag by shaking to evenly distribute the inoculant product on the seeds. The seeds were then stored at 15° C.
The bacteria counts were performed in a similar manner as the previous examples. That is, 50 seeds were put in 100 ml of phosphate buffer in a dilution bottle. The bottle was shaken for 5 minutes. 10 fold serial dilutions were made and 0.1 ml of proper dilution was spread onto nutrient medium plates. The viable bacteria cells on seed were calculated based on the colony numbers on the plates.

B. japonicum strain 532C = experiment: Sorbitol versus trehalose: on-seed rhizobial viability on soybean seed; format: cell-based; details: trehalose 30% w/v vs sorbitol 20% w/v; seeds at 18-20° C., time zero and 7 days, FIG. 13
Experimental: An experiment was run to determine whether sorbitol or trehalose is better suited for application to soybean seeds with B japonicum. The following steps were performed: • 1. B. japonicum strain 532C was grown for 5 days in 1.5×Bj2 (a soybean fermentation medium) at 30° C. and 165 rpm. • 2. Either sorbitol (20% w/v) or trehalose (30% w/v) was added to the culture, and the cultures were maintained for 5 days at 30° C., 165 rpm. • 3. 2.7 ml/kg of either sorbitol or trehalose amended culture was applied to soybean seed. Seeds were evenly coated. • 4. Seeds were stored at 18-20° C. • 5. On-seed rhizobial viability was monitored at time zero and after 7 days

Structure (SMILES)	extension of on-seed shelf life of Rhizobium leguminosarum, ranking of sugars/sugar alcohols tested (Rhizobium leguminosarum)	suitability for application to B japonicum on soybean seeds (on-seed rhizobial viability) (B. japonicum strain 532C)
OC[C@@H](O)[C@@H](O)[C@H](O)[C@@H](O)CO [sorbitol]	top performing	–
OC[C@H]1O[C@H](O[C@H]2O[C@H](CO)[C@@H](O)[C@H](O)[C@H]2O)[C@H](O)[C@@H](O)[C@@H]1O [trehalose]	–	better suited than sorbitol
